Reference: patent US10913721B2, “Crystalline form of aripiprazole” (Noratech Pharmaceuticals, Inc., priority 2016, dated 2021)
“Also recorded” adds a separate entry of the source.

Assays:
[1] = Comparison test for the dissolution rate of crystalline forms of aripiprazole; assay type: physicochemical; conditions: 0.25% sodium dodecyl sulfate solution (900 mL), slurry method, 50 rpm, 37° C.±0.5° C.; 15-360 min; compared with hydrate A and the conventional hydrate (FIG. 7)
Method: Sample preparation: Powders of crystalline form N, hydrate A and the conventional hydrate of aripiprazole are respectively sieved through a 100-mesh sieve, and the appropriate amount of sieved material (equivalent to 50 mg of aripiprazole) is taken and measured to determine the dissolution rate of each sample.
Dissolution conditions: 0.25% sodium dodecyl sulfate solution (900 mL): slurry method: 50 rpm; 37° C.±0.5° C.
Sample detection: Samples of 3 ml are respectively taken at 15, 30, 60, 90, 120, 240, and 360 min, and immediately littered through a 0.45 μm microporous membrane, 2 mL of the initial filtrate is discarded, and the drug concentration in the subsequent filtrate is measured.

[2] = as stated in WO 03/026659; cited from earlier work

O=C1CCc2ccc(OCCCCN3CCN(c4cccc(Cl)c4Cl)CC3)cc2N1 [Crystalline form N, 7-{4-[4-(2,3-dichlorophenyl)-1-piperazinyl]-butoxy}-3,4-dihydroquinolone]
dissolution rate (release rate) [1]: slower release rate; also recorded: slower dissolution rate

O=C1CCc2ccc(OCCCCN3CCN(c4cccc(Cl)c4Cl)CC3)cc2N1 [type-I crystals]
hygroscopicity [2]: significant hygroscopicity
